# Measurements: ChEMBL document CHEMBL4000198, “Triterpene saponins and megastigmane glucosides from Camellia bugiamapensis” (Bioorg Med Chem Lett, 2017)
# What was measured:
# RAW264.7 [1] = assay: Cytotoxicity against mouse RAW264.7 cells by MTT assay; assay type: cell-based
# RAW264.7 [2] = assay: Inhibition of LPS-induced NO production in mouse RAW264.7 cells pretreated for 30 mins followed by LPS challenge measured after 24 hrs by Griess assay; assay type: functional, cell-based
# RAW264.7 [3] = assay: Inhibition of LPS-induced NO production in mouse RAW264.7 cells pretreated for 30 mins followed by LPS challenge measured after 12 hrs by Griess assay; assay type: functional, cell-based
compound,measurement,setting,value
COC(=O)[C@H]1O[C@@H](O[C@H]2CC[C@]3(C)[C@H]4CC=C5[C@@H]6CC(C)(C)CC[C@]6(CO)[C@H](O)C[C@@]5(C)[C@]4(C)CC[C@H]3C2(C)C)[C@H](O[C@@H]2O[C@@H](C)[C@H](O)[C@@H](O)[C@H]2O)[C@@H](O)[C@@H]1O,Activity,RAW264.7 [1],Non-Toxic
same,IC50,RAW264.7 [2],49.4 µM
COc1cc(O)cc(O)c1C(=O)/C=C/c1ccccc1 [CARDAMOMIN],IC50,RAW264.7 [3],2.2 µM
